Counter-ions that a name gives are not always drawn.
How the values were obtained:
[1] = test system: NCI-H292 lung cancer cells; test: FDA drug screening, complete media vs cholesterol-free media with simvastatin (TABLE 2); type: cell-based, human; conditions: for Cholesterol-free media + simvastatin (0.04 μM) / Complete Media: NCI-H292 cells
[2] = test system: NCI-H292 lung cancer cells; test: FDA drug screening, complete media vs cholesterol-free media without statin (TABLE 1); type: cell-based, human
[3] = cholesterol-free media with simvastatin 0.04 μM, FDA drug library screen (TABLE 2)
[4] = complete media, FDA drug library screen (TABLE 2)
[5] = complete media minus cholesterol-free media + simvastatin (0.04 μM), >0 enhanced anti-cancer activity, about 0 neutral, <0 antagonist
[6] = NCI-H292 cells, cholesterol-free media without statin, FDA drug library screen
[7] = NCI-H292 cells, complete media, FDA drug library screen
[8] = complete vs cholesterol-free media, >0 enhanced anti-cancer activity, about 0 neutral, <0 antagonist
[9] = cholesterol-free media with simvastatin 0.04 μM, cell growth value in FDA drug screen
[10] = complete media, cell growth value in FDA drug screen
[11] = complete media minus cholesterol-free media + simvastatin, >0 enhanced anti-cancer activity, about 0 neutral, <0 antagonist
[12] = Complete minus Cholesterol-free, >0 enhanced anti-cancer activity, about 0 neutral, <0 antagonist
[13] = NCI-H292 cells, cholesterol-free media without statin
[14] = Complete minus Cholesterol-free, […]
[15] = drug in cholesterol-free media with simvastatin 0.04 μM
[16] = complete media vs cholesterol-free media + simvastatin (0.04 μM), >0 enhanced anti-cancer activity, about 0 neutral, <0 antagonist
[17] = FDA drug library screen, cholesterol-free media with simvastatin 0.04 μM
[18] = FDA drug library screen, complete media
[19] = complete vs cholesterol-free media, greater than 0 enhanced anti-cancer activity, about 0 neutral, below 0 antagonists
[20] = Complete minus Cholesterol-free, greater than 0 enhanced anti-cancer activity, about 0 neutral, below 0 antagonist
[21] = NCI-H292 cells, FDA drug library screen, cholesterol-free media without statin
[22] = NCI-H292 cells, FDA drug library screen, complete media
[23] = FDA library drug in cholesterol-free media with simvastatin 0.04 μM
[24] = FDA library drug in complete media
[25] = complete media vs cholesterol-free media + simvastatin (0.04 μM), […]
[26] = NCI-H292 cells in cholesterol-free media without statin
[27] = NCI-H292 cells in complete media

Compound | Cholesterol-free [2, 6] | Complete [2, 7] | Difference [1, 11] | Difference [2, 12] | Cholesterol-free [2, 13] | Complete ([2]; NCI-H292 cells, complete media) | Difference [1, 16] | Cholesterol-free media + simvastatin (0.04 μM) [1, 17] | Complete Media [1, 18] | further results
O=C(O)c1cc(-c2ccc(F)cc2F)ccc1O [Diflunisal] | 1.041 | 1.674 |  |  |  |  |  |  |  | Cholesterol-free media + simvastatin (0.04 μM) [1, 3]: 0.785; Complete Media [1, 4]: 0.7827; Difference [1, 5]: 0.00; Difference [2, 8]: 0.63
CCCC(=O)O[C@]1(C(=O)COC(C)=O)CC[C@H]2[C@@H]3C[C@H](F)C4=CC(=O)C=C[C@]4(C)[C@@]3(F)[C@@H](O)C[C@@]21C [Difluprednate] |  |  | 0.07 | −0.21 | 0.9273 | 0.7168 |  |  |  | Cholesterol-free media + simvastatin (0.04 μM) [1, 9]: 1.197; Complete Media [1, 10]: 1.264
C[C@H]1O[C@@H](O[C@H]2[C@@H](O)C[C@H](O[C@H]3[C@@H](O)C[C@H](O[C@H]4CC[C@@]5(C)[C@H](CC[C@@H]6[C@@H]5CC[C@]5(C)[C@@H](C7=CC(=O)OC7)CC[C@]65O)C4)O[C@@H]3C)O[C@@H]2C)C[C@H](O)[C@@H]1O [Digitoxin] | −0.01931 | 0.0198 |  |  |  |  |  |  |  | Cholesterol-free media + simvastatin (0.04 μM) [1, 3]: 0.01053; Complete Media [1, 4]: −0.02212; Difference ([1]; complete media minus cholesterol-free media + simvastatin (0.04 μM), […]): −0.03; Difference [2, 14]: 0.04
C[C@H]1[C@@H](O)O[C@@H]2O[C@@]3(C)CC[C@H]4[C@H](C)CC[C@@H]1[C@@]24OO3 [Dihydroartemisinin] | 0.5972 | 0.6489 |  | 0.05 |  |  | −0.19 |  |  | Cholesterol-free media + simvastatin (0.04 μM) [1, 15]: 0.9193; Complete Media ([1]; drug in complete media): 0.7262
Oc1c(I)cc(I)c2cccnc12 [Diiodohydroxyquinoline] |  |  | 0.41 | −0.27 | 1.098 | 0.8284 |  | 0.94 | 1.35 | 
COc1ccc([C@@H]2Sc3ccccc3N(CCN(C)C)C(=O)[C@@H]2OC(C)=O)cc1 [Diltiazem (hydrochloride)] |  |  |  |  | 1.001 | 0.6844 | −0.16 | 1.317 | 1.159 | Difference [2, 19]: −0.32
OCC(S)CS (centres unmarked) [Dimercaprol] |  |  | 0.21 |  |  |  |  | 0.8801 | 1.094 | Difference [2, 20]: −0.18; Cholesterol-free [2, 21]: 0.9919; Complete [2, 22]: 0.8115
O=S(=O)([O-])CCSSCCS(=O)(=O)[O-].[Na+].[Na+] [Dimesna] |  |  |  |  |  |  |  | 0.7165 | 1.057 | Difference ([1]; complete media minus cholesterol-free media + simvastatin, […]): 0.34; Difference [2, 14]: −0.18; Cholesterol-free [2, 21]: 1.073; Complete [2, 22]: 0.897
COC(=O)/C=C/C(=O)OC [Dimethyl fumarate] |  |  |  |  |  |  | −0.08 | 0.991 | 0.9095 | Difference [2, 20]: −0.13; Cholesterol-free [2, 21]: 0.8617; Complete [2, 22]: 0.7326
Cc1ncc([N+](=O)[O-])n1C [Dimetridazole] |  |  |  |  | 1.219 | 0.8738 | −0.71 |  |  | Cholesterol-free media + simvastatin (0.04 μM) [1, 23]: 1.602; Complete Media [1, 24]: 0.8915; Difference [2, 19]: −0.35
CCCCC[C@H](O)/C=C/[C@@H]1[C@@H](C/C=C\CCCC(=O)O)[C@@H](O)C[C@H]1O.NC(CO)(CO)CO [Dinoprost (tromethamine salt)] |  |  |  |  | 1.291 | 0.9605 | −0.59 |  |  | Cholesterol-free media + simvastatin (0.04 μM) [1, 23]: 1.671; Complete Media [1, 24]: 1.083; Difference [2, 19]: −0.33
COc1ccc(-c2cc(=O)c3c(O)cc(O[C@@H]4O[C@H](CO[C@@H]5O[C@@H](C)[C@H](O)[C@@H](O)[C@H]5O)[C@@H](O)[C@H](O)[C@H]4O)cc3o2)cc1O [Diosmin] | 0.7178 | 1.465 |  |  |  |  | −0.10 | 1.252 |  | Difference [2, 8]: 0.75
CN(C)CCOC(c1ccccc1)c1ccccc1 [Diphenhydramine (hydrochloride)] |  |  | 0.16 | −0.19 | 1.083 | 0.8936 |  | 0.5789 | 0.7429 | 
OC(CCCN1CCCCC1)(c1ccccc1)c1ccccc1 [Diphenidol (hydrochloride)] |  |  | 0.26 |  | 1.3 | 0.8776 |  | 0.9412 | 1.206 | Difference [2, 19]: −0.42
COS(=O)(=O)[O-].C[N+]1(C)CCC(=C(c2ccccc2)c2ccccc2)CC1 [Diphenmanil (methylsulfate)] | 0.8176 | 0.9244 |  |  |  |  |  |  |  | Cholesterol-free media + simvastatin (0.04 μM) [1, 23]: 2.109; Complete Media [1, 24]: 1.508; Difference [1, 25]: −0.60; Difference ([2]; complete vs cholesterol-free media, […]): 0.11
CN1CCC(OC(c2ccccc2)c2ccccc2)CC1 [Diphenylpyraline (hydrochloride)] |  |  | 0.73 | −0.22 | 0.9623 | 0.7446 |  | 0.641 | 1.367 | 
Cn1c(=O)c2c(ncn2CC(O)CO)n(C)c1=O (centres unmarked) [Diphylline] |  |  |  |  |  |  |  |  |  | Cholesterol-free media + simvastatin (0.04 μM) [1, 15]: 1.247; Complete Media ([1]; drug in complete media): 1.05; Difference [1, 25]: −0.20; Difference [2, 14]: −0.69; Cholesterol-free [2, 26]: 1.559; Complete [2, 27]: 0.8732
CC1(C)[C@@H](O[C@H]2O[C@H](C(=O)[O-])[C@@H](O)[C@H](O)[C@H]2O[C@@H]2O[C@H](C(=O)[O-])[C@@H](O)[C@H](O)[C@H]2O)CC[C@]2(C)[C@H]3C(=O)C=C4[C@@H]5C[C@@](C)(C(=O)O)CC[C@]5(C)CC[C@@]4(C)[C@]3(C)CC[C@@H]12.[K+].[K+] [Dipotassium glycyrrhizinate] | 1.01 | 1.007 |  |  |  |  |  |  |  | Cholesterol-free media + simvastatin (0.04 μM) [1, 15]: 1.125; Complete Media ([1]; drug in complete media): 0.9331; Difference [1, 25]: −0.19; Difference [2, 14]: 0.00
OCCN(CCO)c1nc(N2CCCCC2)c2nc(N(CCO)CCO)nc(N3CCCCC3)c2n1 [Dipyridamole] |  |  | 0.13 |  |  |  |  |  |  | Cholesterol-free media + simvastatin (0.04 μM) [1, 9]: 0.9652; Complete Media [1, 10]: 1.095; Difference ([2]; Complete minus Cholesterol-free, greater than 0 enhanced anti-cancer activity, about 0 neutral, below 0 antagonists): −0.51; Cholesterol-free [2, 26]: 1.48; Complete [2, 27]: 0.9729
O=c1ccn([C@@H]2O[C@H](COP(=O)([O-])OP(=O)([O-])OP(=O)([O-])OP(=O)([O-])OC[C@H]3O[C@@H](n4ccc(=O)[nH]c4=O)[C@H](O)[C@@H]3O)[C@@H](O)[C@H]2O)c(=O)[nH]1.[Na+].[Na+].[Na+].[Na+] [Diquafosol (tetrasodium)] |  |  | 0.16 |  |  |  |  | 1.438 | 1.601 | Difference [2, 20]: −0.16; Cholesterol-free [2, 21]: 0.9096; Complete [2, 22]: 0.7536
CC[C@H]1OC(=O)[C@H](C)[C@@H](O[C@H]2C[C@@](C)(OC)[C@@H](O)[C@H](C)O2)[C@H](C)[C@@H](O[C@@H]2O[C@H](C)C[C@H](N(C)C)[C@H]2O)[C@](C)(O)C[C@@H](C)[C@@H]2N[C@@H](COCCOC)O[C@H]([C@H]2C)[C@]1(C)O [Dirithromycin] | 0.918 | 0.9938 |  |  |  |  | −0.07 | 1.565 | 1.493 | Difference [2, 8]: 0.08
COC(=O)/C=C/C(=O)OCCN1C(=O)CCC1=O [Diroximel fumarate] |  |  | 0.17 | −0.30 | 1.046 | 0.7458 |  | 0.9299 | 1.101 | 
CC(C)N(CCC(C(N)=O)(c1ccccc1)c1ccccn1)C(C)C (centres unmarked) [Disopyramide] |  |  |  |  |  |  |  |  |  | Cholesterol-free media + simvastatin (0.04 μM) [1, 3]: 1.301; Complete Media [1, 4]: 1.257; Difference [1, 5]: −0.04; Difference [2, 20]: −0.15; Cholesterol-free [2, 21]: 1.106; Complete [2, 22]: 0.9575
CCN(CC)C(=S)SSC(=S)N(CC)CC [Disulfiram] | 0.0139 | −0.001922 |  | −0.02 |  |  | −0.08 | 0.005061 | −0.0784 | 
O=C1c2c(O)cccc2Cc2cccc(O)c21 [Dithranol] |  |  | 0.08 |  | 1.314 | 0.9897 |  |  |  | Cholesterol-free media + simvastatin (0.04 μM) [1, 9]: 0.8476; Complete Media [1, 10]: 0.9249; Difference [2, 19]: −0.32
CC(CCc1ccc(O)cc1)NCCc1ccc(O)c(O)c1 (centres unmarked) [Dobutamine (hydrochloride)] | 1.125 | 1.131 | 0.40 | 0.01 |  |  |  | 0.8343 | 1.237 | 

— patent publication US20250144067A1, “PERSONALIZED STARVATION THERAPY FOR CANCER” (Faeth Therapeutics, Inc., priority 2021, published 2025)
